Test results published in patent US20250250292A1, “DELIVERY SYSTEM TO TARGET GRAM-NEGATIVE BACTERIA” (priority 2022, published 2025).
Where two headings read alike, the source gives them in different places.

Tests used:
Format in all cases: cell-based
[1] = tested on: Escherichia coli (BL21(DE3)); test: Resazurin blue (alamarBlue) bacterial cell viability assay, gram-negative model
Description: (§1) To compare the efficacy of pleuromutilin and the pleuromulin-TPP^+ ester pro-drug (AP-8-159B) gram-negative and gram-positive pathogen model system were used. Thus, Escherichia coli (BL21(DE3) from New England Biolabs) was used as a model strain for gram-negative bacteria and clinical isolates of Staphylococcus aureus were used as the model system for gram-positive bacteria (NR-49120, NR-46413 obtained from BEI Resources). All strains were cultured at 37° C. overnight in Luria Bertani (LB) (BD 244610). For testing the drug sensitivity, bacteria were grown in RPMI medium containing 10% fetal bovine serum or human serum.
A resazurin blue assay (alamarBlue®) (Toté et al., 2009; Costa et al., 2021; Wannigama et al., 2019; Travnickova et al., 2019) was used to evaluate bacterial cell viability. Resazurin (7-hydroxy-10-oxidophenoxazin-10-ium-3-one, sodium) is a blue fluorogenic dye used as a redox indicator in cell viability and proliferation assays for bacteria, yeast, or mammalian cells. The resazurin assay protocol is based on the reduction of oxidized non-fluorescent blue resazurin to a red fluorescent dye (resorufin), where NADPH dehydrogenase, without being bound by theory, is probably responsible for the transference of electrons from NADPH+H^+ to resazurin (Costa et al., 2021). The amount of resorufin produced is directly proportional to the number of living cells. This simple fluorometric-based assay rapidly quantifies metabolically active bacterial cells. Two controls were added to the plate to confirm the correct response from the resazurin. The positive control used evaluated media alone without bacterial culture to confirm there was no change from blue to red. The negative control evaluated the bacteria culture alone without added compound to provide a 100% growth control (red). Thus, resazurin sodium salt (Sigma R7017) was added to pleuromutilin or pleuromutilin-TPP+ prodrug treated bacterial samples at a final concentration of 0.02% and incubated for 8 hours at 37° C. Changes in fluorescence were measured on the Biotek Synergy 2 plate reader after an 8-hour incubation at 37° C. using an excitation filter range of 530-570 nm and an emission filter range of 590-620 nm. An increase in fluorescence intensity corresponded to bacterial growth and was quantified by comparison with untreated bacterial control samples. The ratio of (TThreshold (untreated)/TThreshold (prodrug-treated)) (where T=time) was used to quantify the change in bacterial growth. To minimize inter-experimental variations, TThreshold values were corrected by subtracting untreated control cultures to reach minimum detectable fluorescence. At the end of the experiment, wells were visualized for changes in color from blue (inviable bacteria) to red (viable bacteria) and a picture was taken.

[2] = tested on: Escherichia coli; test: Antibacterial in vitro activity (MIC)
Description: (§2) These compounds were tested in an E. coli and Klebsiella strain to determine the change in OD600 as a function of concentration (FIG. 5, E. coli; FIG. 6, Klebsiella). The antibacterial activity of the compounds was further analyzed and activity was determine a variety of different bacterial strains.

[3] = tested on: MRC5 fibroblast cells; test: Cel Titer Glo cytotoxicity in MRC5 cells; settings: for IC50: Homo sapiens
Description: In order to facilitate development of the TPP containing antibiotics, a series of TPP linkers were prepared and tested for their toxicity in MRC5 cells. This library of linkers are shown below: The toxicity of these linkers in MRC5 cells after a 72 hour incubation.

[4] = tested on: clinical isolates of Staphylococcus aureus (NR-49120, NR-46413); test: Resazurin blue (alamarBlue) bacterial cell viability assay, gram-positive model; settings: clinical strains of Staphylococcus aureus
Description: as §1
A resazurin blue assay (alamarBlue®) (Toté et al., 2009; Costa et al., 2021; Wannigama et al., 2019; Travnickova et al., 2019) was used to evaluate bacterial cell viability. Resazurin (7-hydroxy-10-oxidophenoxazin-10-ium-3-one, sodium) is a blue fluorogenic dye used as a redox indicator in cell viability and proliferation assays for bacteria, yeast, or mammalian cells. […] This simple fluorometric-based assay rapidly quantifies metabolically active bacterial cells. […] The positive control used evaluated media alone without bacterial culture to confirm there was no change from blue to red. The negative control evaluated the bacteria culture alone without added compound to provide a 100% growth control (red). […] Changes in fluorescence were measured on the Biotek Synergy 2 plate reader after an 8-hour incubation at 37° C. using an excitation filter range of 530-570 nm and an emission filter range of 590-620 nm. An increase in fluorescence intensity corresponded to bacterial growth and was quantified by comparison with untreated bacterial control samples. The ratio of (TThreshold (untreated)/TThreshold (prodrug-treated)) (where T=time) was used to quantify the change in bacterial growth. To minimize inter-experimental variations, TThreshold values were corrected by subtracting untreated control cultures to reach minimum detectable fluorescence. […]

[5] = tested on: Streptococcus pyogenes; test: Antibacterial in vitro activity (MIC); settings: isolate B0780, Clinical isolate
Description: as §2

[6] = tested on: Staphylococcus aureus; test: Antibacterial in vitro activity (MIC)
Description: as §2

[7] = tested on: Pseudomonas aeruginosa; test: Antibacterial in vitro activity (MIC)
Description: as §2

[8] = tested on: Citrobacter freundii; test: Antibacterial in vitro activity (MIC)
Description: as §2

[9] = tested on: Acinetobacter baumannii; test: Antibacterial in vitro activity (MIC)
Description: as §2

[10] = tested on: Enterococcus faecium; test: Antibacterial in vitro activity (MIC); settings: isolate D0459, Clinical isolate
Description: as §2

[11] = tested on: Salmonella typhimurium; test: Antibacterial in vitro activity (MIC); settings: Salmonella enterica, ATCC 13311 / TYPHIMURIUM; isolate D0109, ATCC13311
Description: as §2

[12] = tested on: Streptococcus pneumoniae; test: Antibacterial in vitro activity (MIC)
Description: as §2

[13] = tested on: Streptococcus agalactiae; test: Antibacterial in vitro activity (MIC); settings: isolate B0790, Clinical isolate
Description: as §2

[14] = tested on: Klebsiella pneumoniae; test: Antibacterial in vitro activity (MIC)
Description: as §2

[15] = tested on: Haemophilus influenzae; test: Antibacterial in vitro activity (MIC)
Description: as §2

[16] = tested on: Proteus mirabilis; test: Antibacterial in vitro activity (MIC)
Description: as §2

[17] = tested on: Enterobacter cloacae; test: Antibacterial in vitro activity (MIC)
Description: as §2

[18] = ATCC25922, isolate B0001, ATCC 25922, read-out: MIC
[19] = isolate B0159, Efflux pump deficient (ΔtolC)
[20] = isolate B0429, Efflux pump deficient (ΔacrAB)
[21] = isolate B1098, Clinical isolate, read-out: MIC
[22] = isolate D0120, Clinical isolate, read-out: MIC
[23] = Table 1, TPP+ linkers, MRC5 cells, 72-hour incubation
[24] = Table 2, cytotoxicity in MRC5 fibroblast cells

O=C(O)c1ccc(C[P+](c2ccccc2)(c2ccccc2)c2ccccc2)cc1 [AP-8-108, (4-Carboxybenzyl)triphenylphosphonium bromide]
cytotoxic effect ([1]; E. coli BL21 (DE3)): no cytotoxic effect
MIC [2, 18]: > 32 µg/mL
MIC [2, 19]: > 32 µg/mL
MIC [2, 20]: > 32 µg/mL
MIC [2, 21]: > 32 µg/mL
MIC [2, 22]: > 32 µg/mL
IC50 [3, 23]: > 90 µM
IC50 [3, 24]: > 90 µM
cytotoxic effect [4]: no cytotoxic effect

Oc1ccc(C[P+](c2ccccc2)(c2ccccc2)c2ccccc2)cc1 [AP-8-109]
IC50 [3, 23]: 60.6 µM

C=C[C@]1(C)C[C@@H](OC(=O)COC(=O)c2ccc(C[P+](c3ccccc3)(c3ccccc3)c3ccccc3)cc2)[C@]2(C)CC[C@@H](C)[C@@]3(CCC(=O)[C@@H]23)[C@@H](C)[C@@H]1O [AP-8-159B]
cytotoxicity potency ([1]; E Coli BL21 (DE3)): 1.65 µg/mL
MIC [5]: 0.12 µg/mL
MIC ([6]; ATCC49951, isolate B0009, ATCC 49951): ≤ 0.12 µg/mL
MIC ([6]; isolate B0029, Clinical isolate): 0.5 µg/mL
MIC ([6]; isolate B1325, Clinical isolates): 0.5 µg/mL
MIC ([7]; ATCC27853, isolate B0015, ATCC 27853): 8 µg/mL
MIC ([7]; ATCC29511, isolate B0016, ATCC 29511): 16 µg/mL
MIC ([7]; isolate B0367, Clinical isolate): 4 µg/mL
MIC ([8]; isolate B0271, Clinical isolate): 64 µg/mL
MIC ([8]; isolate B0286, AKH Vienna): 64 µg/mL
MIC ([9]; ATCC15473, isolate B0473, ATCC 15473): 64 µg/mL
MIC ([9]; isolate B1062, Clinical isolate): 128 µg/mL
MIC [10]: 0.5 µg/mL
MIC [11]: 16 µg/mL
MIC ([12]; isolate B0078, Clinical isolate): 0.5 µg/mL
MIC ([12]; isolate B0415, Clinical isolate): ≤ 0.12 µg/mL
MIC [2, 18]: 8 µg/mL
MIC ([2]; isolate B0158, AcrAB-TolC efflux pump WT, read-out: MIC): 32 µg/mL
MIC [2, 19]: 0.5 µg/mL
MIC [2, 20]: 1 µg/mL
MIC [2, 21]: 16 µg/mL
MIC [2, 22]: 16 µg/mL
MIC [13]: 0.06 µg/mL
MIC ([14]; ATCC11228, isolate B0032, ATCC 11228): > 128 µg/mL
MIC ([14]; ATCC29519, isolate D0033, ATCC 29519): 128 µg/mL
MIC ([14]; ATCC43816, isolate B0305, ATCC 43816): 128 µg/mL
MIC ([15]; ATCC49247, isolate B0035, ATCC 49247): 1 µg/mL
MIC ([15]; isolate B0126, Clinical isolate): 0.25 µg/mL
MIC ([16]; Proteus mirabilis, isolate D1301, Clinical isolate, read-out: MIC): 32 µg/mL
MIC ([16]; isolate D1300, Clinical isolate): 32 µg/mL
MIC ([17]; isolate D1089, Clinical isolate): > 128 µg/mL
MIC ([17]; isolate D1090, Clinical isolate): > 128 µg/mL
IC50 [3, 24]: 4.67 µM
cytotoxicity ([3]; normal MRC5 fibroblast cell lines): weak cytoxcity
cytotoxic effect [4]: potent cytotoxic agents

Fc1cc(C[P+](c2ccccc2)(c2ccccc2)c2ccccc2)ccc1Cl [BI-182]
IC50 [3, 23]: > 90 µM
